Test results published in patent US20200216906A1, “METHODS AND COMPOSITIONS RELATING TO THE DIAGNOSIS AND TREATMENT OF CANCER” (PRESIDENT AND FELLOWS OF HARVARD COLLEGE, priority 2015, published 2020).
Entries after “also recorded” stand apart in the source; their conditions may differ. Read-outs that look alike come from different tables or passages of the source.

How the values were obtained:
[1] = system: Panc02.13 cells expressing vector only (02.13-WT); test: Kinetic cell growth assay, Panc02.13 cells expressing vector only; assay type: cell-based, human
Procedure: (§1) Panc02.13 cells were used to express YAPS6A (or vector controls) under sparse and dense cultures. Expression was confirmed by confocal microscopy (data not shown). Suppression of the Hippo pathway by expression of non-phospho, active form of YAP (YAPS6A) sensitized pancreatic cancer cells to gemcitabine and 5-FU (FIGS. 6 and 7). Apoptosis was measured by immunobloting with cleaved caspases 3/7 or PARP. Blots were also stained with anti-β-actin for loading control. The effect of Hippo pathway suppression on gemcitabine and 5-FU senstitization was maintained in 3D spheroid culture (FIG. 8). The effects of eleven cytotoxic drugs on the growth of Panc02.13 cells expressing vector only or YAPS6A construct grown under low or high densities were determined (Table 1).
(§2) The effect of gemcitabine on pancreatic cancer cell growth was studied using a kinetic cell growth assay. Pancreatic cancer cells were plated on 96-well plates (Essen ImageLock, Essen Instruments, MI, US) at varying densities (2-4×10^3 for low density or 15-20×10^3 for high density experiments). Small molecule inhibitors at different doses were added 24 hours after plating and cell confluence was monitored with Incucyte Live-Cell Imaging System and software (Essen Instruments). Confluence was observed every hour for 48-144h or until the control (DMSO only) samples reached 100% confluence.
as §2, with “Kinetic Cell growth assay. The” for “The”, “(2-4X103” for “(2-4×10^3”, “15-20X103” for “15-20×10^3”, “Incucyte™” for “Incucyte”

[2] = system: Panc02.13 cells expressing YAPS6A construct; test: Kinetic cell growth assay, Panc02.13 cells expressing YAPS6A; assay type: cell-based, human; details: YAPS6A construct
Procedure: as §1, §2
Cell lines (Panc02.13, Panc10.05 or Miapaca2) were transfected with YAPS6A constructs (Addgene) using Lipofectamine™ (Invitrogen, Carlsbad, Calif.) following the manufacturer's instructions and 48 hour post-transfection selected in 5-10 μg/ml Blasticidin (InvivoGen, San Diego, Calif.). The clones screened for YAPS6A expression by Western blot. Stable cell lines were maintained in complete medium and 5 μg/ml Blasticidin.
as §2, with “Kinetic Cell growth assay. The” for “The”, “(2-4X103” for “(2-4×10^3”, “15-20X103” for “15-20×10^3”, “Incucyte™” for “Incucyte”

[3] = system: patient-derived xenograft (PDX) models; test: Patient-derived xenograft (PDX) models, tumor growth inhibition; assay type: in vivo, mouse; details: PDX models
Excerpt: An alternative to an endogenous mouse models for capturing effects of the tumor environment are patient-derived xenograft (PDX) models. […] At the cellular level, PDX models also preserve the intra-tumoral heterogeneity, as well as the molecular characteristics of the original cancer, including copy number variants, single-nucleotide polymorphisms, and gene expression profiles (Choi et al., 2014; DeRose et al., 2011). […] When patient-derived xenograft PDX models were used to assess whether YAP activation sensitizes solid tumors to gemcitabine significant effects were found. The studies were performed in the following manner: Tumor fragments (around 64 mm^3) were implanted into the flanks of recipient mice and tumor dimensions recorded with digital calipers. Once tumor implants reached a volume of approximately 200 mm3, dosing with gemcitabine (or vehicle control) began. At the completion of the study completion, the percent tumor growth inhibition (% TGI) was calculated for gemcitabine (G) and the vehicle control (C) using initial (i) and final (f) tumor measurements by the formula: % TGI=[1−(Gf−Gi)/(Cf−Ci)]x100.
Patient-derived xenograft (PDX) models. PDX models were established by Champions Oncology (Baltimore, Md.) as described previously (Khor et al., 2015). Drug response to 20 PDX models was obtained from Champions TumorGraft® Database (available on the world wide web at database.championsoncology.com/).
Immunohistochemistry. Human primary tumor tissue slides were obtained from Champions Oncology (Baltimore, Md.). Immunohistochemistry using anti YAP1 antibody (Abcam Cat # ab52771) was performed as previously described (Shi et al., 1999). For negative controls, primary antibody was omitted. The intensity of YAP staining was assessed by an independent pathologist using a four-grade scale: “0” is negative. “0.5” is borderline staining with no significance. “1” is weak staining. “1.5” is weak staining with foci of moderate staining. “2” is moderate staining. […] YAP scoring index was calculated based on staining intensity * % of positive target cells.

[4] = system: pancreatic cancer cell lines; test: Kinetic cell growth assay, panel of pancreatic cancer cell lines; assay type: cell-based, human
Procedure: as §2
FIG. 20A illustrates the kinetic cell growth assay to determine the effect of gemcitabine in a panel of pancreatic cancer cell lines. Cells are plated at low crowding conditions (10-25% confluence) and 24 hours later exposed to gemcitabine in a dose-dependent manner. They are imaged every 1-3 hours until control (vehicle) treated cells reach 100% confluence. This assay is not confounded by the fact that the time required for each cell line to reach 100% confluence may be very different (as the cell lines have different doubling times). A dose response effect of gemcitabine on cell growth for 16 pancreatic cancer cell lines is shown in FIGS. 20B, 3, 31A-31C and 28, where the range of previous studies is also shown. […] Similar responses to gemcitabine were found in liver cancer cell lines (Huh7 and FOCUS) and untransformed (HEK293) cell lines (FIGS. 3, 31A-31C).
as §2, with “Kinetic Cell growth assay. The” for “The”, “(2-4X103” for “(2-4×10^3”, “15-20X103” for “15-20×10^3”, “Incucyte™” for “Incucyte”

[5] = system: Panc02.13 cells expressing the YAPS6A mutant; test: 3D spheroid growth assay, Panc02.13 cells expressing YAPS6A; assay type: cell-based, human; details: YAP activity increased
Panc02.13 cells = test: 3D spheroid growth assay, Panc02.13 (GFP/parental) cells; details: Hippo-YAP pathway active
Procedure: Cancer cell lines were seeded at a 5×10^3 cells per well in a 96-well ultra-low adherence plates (Costar) and briefly spun down at 1000 rpm for 5 minutes. After 2 days, cells were treated with small molecule inhibitors at varying concentrations. Growth of spheroids was monitored using live cell imaging every 2-3 hours for 4-7 days in the Incucyte FLR™ system (Essen) or as end point assay using CellTiter-Glo™ luminescent cell viability assay (Promega).
A dose response curve for each inhibitor is calculated based on control (no inhibitor/DMSO) treated wells.
Cancer cell lines were seeded at a 5×10^3 cells per well in a 96-well ultra-low adherence plates (Costar) and briefly spun down at 1000 rpm for 5 minutes. After 2 days, cells were treated with small molecule inhibitors at varying concentrations. Growth of spheroids was monitored using live cell imaging every 2-3 hours for 4-7 days in the Incucyte ZOOM™ system (Essen) or as end point assay using CellTiter-Glo™ luminescent cell viability assay (Promega).

ABCG2 = target: T1, ABCG2 (Homo sapiens, UniProt Q9UNQ0); details: Cusatis and Sparreboom, 2008; cited from earlier work
T1 sequence (Q9UNQ0 1-655): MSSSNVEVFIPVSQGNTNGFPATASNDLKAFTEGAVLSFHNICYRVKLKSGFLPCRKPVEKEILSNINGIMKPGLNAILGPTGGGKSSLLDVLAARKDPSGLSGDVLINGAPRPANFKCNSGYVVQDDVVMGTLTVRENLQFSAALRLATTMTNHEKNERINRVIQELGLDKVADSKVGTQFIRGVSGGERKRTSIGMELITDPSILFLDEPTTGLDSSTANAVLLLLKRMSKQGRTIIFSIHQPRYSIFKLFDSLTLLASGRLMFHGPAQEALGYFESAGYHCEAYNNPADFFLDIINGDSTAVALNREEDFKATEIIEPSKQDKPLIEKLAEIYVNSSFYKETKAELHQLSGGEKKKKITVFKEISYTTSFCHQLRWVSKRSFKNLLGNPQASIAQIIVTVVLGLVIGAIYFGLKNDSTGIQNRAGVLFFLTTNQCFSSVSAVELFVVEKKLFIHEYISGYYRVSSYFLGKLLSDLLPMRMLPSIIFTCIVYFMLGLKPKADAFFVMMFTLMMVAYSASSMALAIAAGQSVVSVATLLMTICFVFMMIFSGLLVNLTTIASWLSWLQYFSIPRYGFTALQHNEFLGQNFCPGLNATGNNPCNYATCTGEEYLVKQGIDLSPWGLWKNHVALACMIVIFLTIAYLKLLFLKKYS

[6] = Homo sapiens, high density, read-out: High density (EC50, nM) 02.13-WT
[7] = Homo sapiens, low density, read-out: Low density (EC50, nM) 02.13-WT
[8] = Homo sapiens, high density, read-out: High density (EC50, nM) 02.13-YAPS6A
[9] = Homo sapiens, low density, read-out: Low density (EC50, nM) 02.13-YAPS6A

## N.N.[Cl][Pt][Cl] [Cisplatin]
[1]; high density, read-out: High density (EC50, nM) 02.13-WT
  EC50: > 10000 nM
[1]; low density, read-out: Low density (EC50, nM) 02.13-WT
  EC50: > 10000 nM
[2]; high density, read-out: High density (EC50, nM) 02.13-YAPS6A
  EC50: > 10000 nM
[2]; low density, read-out: Low density (EC50, nM) 02.13-YAPS6A
  EC50: > 10000 nM
[3]
  % TGI dependence on YAP activity: not affected by YAP activity

## COc1cccc2c1C(=O)c1c(O)c3c(c(O)c1C2=O)C[C@@](O)(C(=O)CO)C[C@@H]3O[C@H]1C[C@H](N)[C@H](O)[C@H](C)O1 [Doxorubicin]
[1]; [6]
  EC50: 386 nM
[1]; [7]
  EC50: 35 nM
[2]; [8]
  EC50: 133 nM
[2]; [9]
  EC50: 68 nM
[4]; seven PDAC cell lines, threshold >100 fold difference in EC50
  Dependence of cellular response on cell crowding: dependent on cell crowding
[4]; seven pancreatic cancer cell lines, sparse and dense conditions
  Density dependence of efficacy: density-dependent
[5]
  Efficacy in inhibiting cell growth when the Hippo pathway was inhibited: increased efficacy in inhibiting cell growth
Panc02.13 cells
  Efficacy in inhibiting cell growth when the Hippo pathway was not inhibited: efficacious in inhibiting cell growth

## COc1cc([C@@H]2c3cc4c(cc3[C@@H](O[C@@H]3O[C@@H]5CO[C@@H](C)O[C@H]5[C@H](O)[C@H]3O)[C@H]3COC(=O)[C@H]23)OCO4)cc(OC)c1O [Etoposide]
[1]; [6]
  EC50: 2600 nM
[1]; [7]
  EC50: 386 nM
[2]; [8]
  EC50: 942 nM
[2]; [9]
  EC50: 383 nM
[5]
  Efficacy in inhibiting cell growth when the Hippo pathway was inhibited: particularly significant inhibitory activity
[5]; listed as etopiside
  Efficacy in inhibiting cell growth when the Hippo pathway was inhibited: increased efficacy in inhibiting cell growth
ABCG2
  Substrate of ABCG2: substrates of ABCG2

## N.N.O=C([O-])C1(C(=O)[O-])CCC1.[Pt+2] [carboplatin]
[3]
  % TGI dependence on YAP activity: not affected by YAP activity

## Nc1nc(Cl)nc2c1ncn2[C@H]1C[C@H](O)[C@@H](CO)O1 [cladribine]
[5]
  Efficacy in inhibiting cell growth when the Hippo pathway was inhibited: increased efficacy in inhibiting cell growth; also recorded: particularly significant inhibitory activity
ABCG2
  Substrate of ABCG2: substrates of ABCG2

## COc1cccc2c1C(=O)c1c(O)c3c(c(O)c1C2=O)C[C@@](O)(C(=O)CO)C[C@@H]3O[C@H]1C[C@H](N)[C@@H](O)[C@H](C)O1 [epirubicin]
[5]
  Efficacy in inhibiting cell growth when the Hippo pathway was inhibited: increased efficacy in inhibiting cell growth
ABCG2
  Substrate of ABCG2: substrates of ABCG2
Panc02.13 cells
  Efficacy in inhibiting cell growth when the Hippo pathway was not inhibited: efficacious in inhibiting cell growth

## CN(Cc1cnc2nc(N)nc(N)c2n1)c1ccc(C(=O)N[C@@H](CCC(=O)O)C(=O)O)cc1 [methotrexate]
[5]
  Efficacy in inhibiting cell growth when the Hippo pathway was inhibited: increased efficacy in inhibiting cell growth; also recorded: particularly significant inhibitory activity
ABCG2
  Substrate of ABCG2: substrates of ABCG2

## O=C1c2c(O)ccc(O)c2C(=O)c2c(NCCNCCO)ccc(NCCNCCO)c21 [mitoxantrone]
[5]
  Efficacy in inhibiting cell growth when the Hippo pathway was inhibited: increased efficacy in inhibiting cell growth; also recorded: particularly significant inhibitory activity
ABCG2
  Substrate of ABCG2: substrates of ABCG2

## COc1cc([C@@H]2c3cc4c(cc3[C@@H](O[C@@H]3O[C@@H]5CO[C@@H](c6cccs6)O[C@H]5[C@H](O)[C@H]3O)[C@H]3COC(=O)[C@H]23)OCO4)cc(OC)c1O [teniposide]
[5]
  Efficacy in inhibiting cell growth when the Hippo pathway was inhibited: increased efficacy in inhibiting cell growth; also recorded: particularly significant inhibitory activity
ABCG2
  Substrate of ABCG2: substrates of ABCG2

## CC[C@@]1(O)C(=O)OCc2c1cc1n(c2=O)Cc2cc3c(CN(C)C)c(O)ccc3nc2-1 [topotecan]
[5]
  Efficacy in inhibiting cell growth when the Hippo pathway was inhibited: increased efficacy in inhibiting cell growth
ABCG2
  Substrate of ABCG2: substrates of ABCG2
